Experimental data published in US20240287138A1, “CYCLIC PEPTIDES FOR INHIBITING TNF RECEPTOR 1 ACTIVITY” (Merck Sharp & Dohme LLC, priority 2023, published 2024).
Numbered stars: 1 amine (or outer) side, 2 acyl side, 3 side chain; on linkers, the order of the positions; unused ones are H or OH. Bridge positions count the residues as written; N and C are the ends. Square brackets hold non-standard residues; d marks the D form. Peptide text beside a SMILES is read from it. * marks the point of attachment. Trp(βS-Me,7-OMe) = COc1cccc2c([C@H](C)[C@H](N)C(=O)O)c[nH]c12; Trp(7-CN) = N#Cc1cccc2c(C[C@H](N)C(=O)O)c[nH]c12; Trp(7-Cl) = N[C@@H](Cc1c[nH]c2c(Cl)cccc12)C(=O)O; X27 = O=C(O)c1ccc(C[C@H](N[*:1])C(=O)[*:2])cc1F; Phe(3-CONH2) = NC(=O)c1cccc(C[C@H](N)C(=O)O)c1; Phe(4-CONH2) = NC(=O)c1ccc(C[C@H](N)C(=O)O)cc1; Phe(4-COOH) = N[C@@H](Cc1ccc(C(=O)O)cc1)C(=O)O; Trp(7-aza) = N[C@@H](Cc1c[nH]c2ncccc12)C(=O)O; Trp(1-Me) = Cn1cc(C[C@H](N)C(=O)O)c2ccccc21; Pip(5R-OH) = O=C(O)[C@@H]1CC[C@@H](O)CN1; X1 = O=C([C@@H]1CC[C@H](N[*:1])C1)[*:2]; Isoxazole(3-carbonyl) = O=C(c1ccon1)*; Pip(4-aza) = O=C(O)[C@@H]1CNCCN1; 4Pal = N[C@@H](Cc1ccncc1)C(=O)O; NMeE = CN[C@@H](CCC(=O)O)C(=O)O; dHyp = O=C(O)[C@H]1C[C@H](O)CN1; Cit = NC(=O)NCCC[C@H](N)C(=O)O; Ahp(2) = CCCCC[C@H](N)C(=O)O; αMeS = C[C@](N)(CO)C(=O)O; Nle = CCCC[C@H](N)C(=O)O; Dab = NCC[C@H](N)C(=O)O; Sar = CNCC(=O)O

Each compound was assayed against T1, human soluble TNFR1 (sTNFR1) (Homo sapiens, UniProt P19438) (assay: Human sTNFR1-peptide displacement assay (LanthaScreen Eu TR-FRET binding assay)).
T1 construct: made in house; host or cells: Sf21 (baculovirus)
T1 sequence (P19438 with tags, fused parts or gaps): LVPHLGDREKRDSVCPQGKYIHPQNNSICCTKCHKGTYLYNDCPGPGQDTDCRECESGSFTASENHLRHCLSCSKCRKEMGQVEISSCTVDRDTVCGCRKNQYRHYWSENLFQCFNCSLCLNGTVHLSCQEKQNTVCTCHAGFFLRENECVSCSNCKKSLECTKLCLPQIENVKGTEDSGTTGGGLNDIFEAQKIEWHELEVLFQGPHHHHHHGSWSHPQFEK
Outline: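 Readout is the 665/615 nm TR-FRET ratio (Eu anti-His donor, streptavidin-Alexa647 acceptor), normalized to DMSO and saturating displacer, fit by Morrison-based five-parameter logistic for Kd^app. His-tagged sTNFR1 (1-211) prebound to 100 nM biotinylated peptide SEQ ID NO.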

SMILES | Kd [nM] | IC50 [nM]
COc1cccc2c([C@H](C)[C@@H]3NC(=O)CN(C)C(=O)[C@H](Cc4cccc(C(N)=O)c4)NC(=O)[C@H](Cc4ccc(C(N)=O)cc4)NC(=O)[C@](C)(CO)NC(=O)[C@H](Cc4c[nH]c5c(Cl)cccc45)NC(=O)[C@H](Cc4ccncc4)NC(=O)[C@H](CC(N)=O)NC(=O)[C@H]4C[C@H](O)CN4C(=O)[C@H](Cc4c[nH]c5ccccc45)NC(=O)[C@@H]4CC[C@@H](O)CN4C(=O)[C@H](Cc4ccncc4)NC(=O)[C@H](CCNC(=O)c4ccon4)NC(=O)[C@@H]4CC[C@@H](C4)NC3=O)c[nH]c12 [SEQ ID NO. 169] (cyclo([4Pal][Trp(7-Cl)][αMeS][Phe(4-CONH2)][Phe(3-CONH2)][Sar][Trp(βS-Me,7-OMe)][X1][Dab](Isoxazole(3-carbonyl))[4Pal][Pip(5R-OH)]W[dHyp]N)) | 0.16 | –
CCCC[C@@H]1NC(=O)[C@@H]2CC[C@@H](C2)NC(=O)[C@H]([C@@H](C)c2c[nH]c3c(OC)cccc23)NC(=O)CN(C)C(=O)[C@H](Cc2ccc(O)cc2)NC(=O)[C@H](Cc2ccc(C(=O)O)cc2)NC(=O)[C@](C)(CO)NC(=O)[C@H](Cc2c[nH]c3c(Cl)cccc23)NC(=O)[C@H](Cc2ccncc2)NC(=O)[C@H](CC(N)=O)NC(=O)CN(C)C(=O)[C@H](Cc2c[nH]c3ccccc23)NC(=O)[C@@H]2CNCCN2C(=O)[C@H](Cc2ccncc2)NC1=O [SEQ ID NO. 141] (cyclo([4Pal][Trp(7-Cl)][αMeS][Phe(4-COOH)]Y[Sar][Trp(βS-Me,7-OMe)][X1][Nle][4Pal][Pip(4-aza)]W[Sar]N)) | 0.17 | –
CCCCC[C@@H]1NC(=O)[C@@H]2CC[C@@H](C2)NC(=O)[C@H]([C@@H](C)c2c[nH]c3c(OC)cccc23)NC(=O)CN(C)C(=O)[C@H](Cc2ccc(OC)cc2)NC(=O)[C@H](Cc2ccc(C(N)=O)cc2)NC(=O)[C@](C)(CO)NC(=O)[C@H](Cc2c[nH]c3c(C#N)cccc23)NC(=O)[C@H](Cc2ccncc2)NC(=O)[C@H](CC(N)=O)NC(=O)[C@H]2C[C@H](O)CN2C(=O)[C@H](Cc2c[nH]c3ccccc23)NC(=O)[C@@H]2CNCCN2C(=O)[C@H](Cc2ccncc2)NC1=O [SEQ ID NO. 200] (cyclo([4Pal][Trp(7-CN)][αMeS][Phe(4-CONH2)]Y(Me)[Sar][Trp(βS-Me,7-OMe)][X1][Ahp(2)][4Pal][Pip(4-aza)]W[dHyp]N)) | 0.09 | –
CCCC[C@@H]1NC(=O)CSC[C@@H](C(N)=O)NC(=O)[C@H](Cc2cn(C)c3ccccc23)NC(=O)CN(C)C(=O)[C@H](Cc2ccc(O)cc2)NC(=O)[C@H](Cc2ccc(C(=O)O)cc2)NC(=O)[C@](C)(CO)NC(=O)[C@H](Cc2c[nH]c3c(Cl)cccc23)NC(=O)[C@H](Cc2ccncc2)NC(=O)[C@H](CC(N)=O)NC(=O)[C@H](CCC(=O)O)N(C)C(=O)[C@H](Cc2c[nH]c3ncccc23)NC(=O)[C@H](CO)NC(=O)[C@H](Cc2ccncc2)NC1=O [SEQ ID NO. 223] ({CH2CO}-[Nle][4Pal]S[Trp(7-aza)][NMeE]N[4Pal][Trp(7-Cl)][αMeS][Phe(4-COOH)]Y[Sar][Trp(1-Me)]C-NH2; thioether N-14) | 0.48 | 0.39
CCCC[C@@H]1NC(=O)[C@@H]2CC[C@@H](C2)NC(=O)[C@H]([C@@H](C)c2c[nH]c3c(OC)cccc23)NC(=O)CN(C)C(=O)[C@H](Cc2ccc(C(=O)O)cc2)NC(=O)[C@H](Cc2ccc(C(N)=O)cc2)NC(=O)[C@](C)(CO)NC(=O)[C@H](Cc2c[nH]c3c(C#N)cccc23)NC(=O)[C@H](Cc2ccc(C(=O)O)c(F)c2)NC(=O)[C@H](CC(N)=O)NC(=O)[C@H]2C[C@H](O)CN2C(=O)[C@H](Cc2c[nH]c3ncccc23)NC(=O)[C@@H]2CC[C@@H](O)CN2C(=O)[C@H](Cc2ccncc2)NC1=O [SEQ ID NO. 8] (cyclo([4Pal][Pip(5R-OH)][Trp(7-aza)][dHyp]N[X27][Trp(7-CN)][αMeS][Phe(4-CONH2)][Phe(4-COOH)][Sar][Trp(βS-Me,7-OMe)][X1][Nle])) | 0.1 | –
CN1CC(=O)N[C@@H](Cc2c[nH]c3ccccc23)C(=O)N[C@H](C(N)=O)CSCC(=O)N[C@@H](CCCCN)C(=O)N[C@@H](Cc2ccc(O)cc2)C(=O)N[C@@H](CO)C(=O)N[C@@H](Cc2c[nH]c3ccccc23)C(=O)N2CCC[C@@H]2C(=O)N[C@@H](CCCNC(N)=O)C(=O)N[C@@H](Cc2ccncc2)C(=O)N[C@@H](Cc2c[nH]c3ccccc23)C(=O)N[C@@](C)(CO)C(=O)N[C@@H](Cc2ccc(C(=O)O)cc2)C(=O)N[C@@H](Cc2ccc(O)cc2)C1=O [SEQ ID NO. 256] ({CH2CO}-KYSW[dP][Cit][4Pal]W[αMeS][Phe(4-COOH)]Y[Sar]WC-NH2; thioether N-14) | – | 1.84
